Measurements: ChEMBL document CHEMBL4049386, “Discovery of an Inhibitor of the Proteasome Subunit Rpn11” (J Med Chem, 2017)
Activity calls are given as the source filed them. The rule behind the calls is not given here.

Assays:
Carbonic anhydrase 2 = Carbonic anhydrase 2 (Homo sapiens, UniProt P00918); test: Inhibition of human carbonic anhydrase-2 using p-nitrophenylacetate as substrate preincubated for 10 mins followed by substrate addition
Histone deacetylase 1 = Histone deacetylase 1 (Homo sapiens, UniProt Q13547); test: Inhibition of full length recombinant human C-terminal His/FLAG-tagged HDAC1 expressed in baculovirus expression system using substrate 3 preincubated for 5 mins followed by substrate addition measured after 30 mins by fluorescence assay
[1] = target: T1, 26S proteasome non-ATPase regulatory subunit 14 (Homo sapiens, UniProt O00487); test: Inhibition of 26S proteasome regulatory subunit RPN11 deubiquitinating activity in human erythrocytes using Ub4-pepOG protein substrate preincubated for 1 hr followed by substrate addition measured after 80 mins by fluorescence polarization assay
[2] = target: COP9 signalosome complex subunit 5 (Homo sapiens, UniProt Q92905); test: Inhibition of CSN5 (unknown origin) using SCFskp2-Nedd8OG as substrate after 1 hr by fluorescence polarization assay
[3] = target: T2, Polyunsaturated fatty acid 5-lipoxygenase (Homo sapiens, UniProt P09917); test: Inhibition of recombinant human 5-LO expressed in baculovirus infected sf9 cells using arachidonic acid as substrate preincubated for 10 mins followed by substrate addition measured every minute for 20 mins by H2DCFDA dye based fluorescence assay
T2 sequence (P09917 whole entry): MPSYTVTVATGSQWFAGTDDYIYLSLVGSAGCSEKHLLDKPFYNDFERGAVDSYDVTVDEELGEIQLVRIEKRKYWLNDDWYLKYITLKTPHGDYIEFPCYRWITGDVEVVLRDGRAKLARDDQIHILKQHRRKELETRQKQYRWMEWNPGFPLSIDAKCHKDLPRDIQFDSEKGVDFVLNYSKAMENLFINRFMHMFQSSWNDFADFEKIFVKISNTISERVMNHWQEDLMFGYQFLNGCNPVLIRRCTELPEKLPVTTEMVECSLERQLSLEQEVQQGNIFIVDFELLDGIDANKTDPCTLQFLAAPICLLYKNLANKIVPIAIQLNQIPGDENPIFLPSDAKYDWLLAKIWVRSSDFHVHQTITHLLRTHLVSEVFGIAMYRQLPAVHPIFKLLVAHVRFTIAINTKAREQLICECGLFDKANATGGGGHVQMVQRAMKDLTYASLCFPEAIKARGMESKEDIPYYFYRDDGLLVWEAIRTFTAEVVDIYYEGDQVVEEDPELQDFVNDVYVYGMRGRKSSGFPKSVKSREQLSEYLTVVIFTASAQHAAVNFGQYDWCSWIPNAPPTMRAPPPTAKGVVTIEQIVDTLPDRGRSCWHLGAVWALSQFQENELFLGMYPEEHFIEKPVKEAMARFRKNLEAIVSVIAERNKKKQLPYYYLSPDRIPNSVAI

[4] = target: Lys-63-specific deubiquitinase BRCC36 (Homo sapiens) (UniProt P46736); test: Inhibition of BRCC36 (unknown origin) using DiUbK63TAMRA as substrate by fluorescence assay
[5] = target: T1, 26S proteasome non-ATPase regulatory subunit 14; conditions: 200 uM
Description: Inhibition of 26S proteasome regulatory subunit RPN11 deubiquitinating activity in human erythrocytes at 200 uM using Ub4-pepOG protein substrate preincubated for 1 hr followed by substrate addition measured after 80 mins by fluorescence polarization assay relative to control

[6] = target: 72 kDa type IV collagenase (Homo sapiens, UniProt P08253); test: Inhibition of recombinant human MMP2 catalytic domain (Tyr110 to Asp452 residues) expressed in yeast using Mca-Pro-Leu-Gly-Leu-Dpa-Ala-Arg-NH2.AcOH as substrate preincubated for 30 mins followed by substrate addition measured every minute for 20 mins by fluorescence assay
HCT-116 = test: cells; conditions: Homo sapiens, HCT-116, 72 h
Description: Antiproliferative activity against human HCT116 cells after 72 hrs by Cell Titer-Glo assay

[7] = target: T3, Protein deacetylase HDAC6 (Homo sapiens, UniProt Q9UBN7); test: Inhibition of full length recombinant human N-terminal GST-tagged HDAC6 expressed in baculovirus expression system using substrate 3 preincubated for 5 mins followed by substrate addition measured after 30 mins by fluorescence assay
T3 sequence (Q9UBN7 whole entry): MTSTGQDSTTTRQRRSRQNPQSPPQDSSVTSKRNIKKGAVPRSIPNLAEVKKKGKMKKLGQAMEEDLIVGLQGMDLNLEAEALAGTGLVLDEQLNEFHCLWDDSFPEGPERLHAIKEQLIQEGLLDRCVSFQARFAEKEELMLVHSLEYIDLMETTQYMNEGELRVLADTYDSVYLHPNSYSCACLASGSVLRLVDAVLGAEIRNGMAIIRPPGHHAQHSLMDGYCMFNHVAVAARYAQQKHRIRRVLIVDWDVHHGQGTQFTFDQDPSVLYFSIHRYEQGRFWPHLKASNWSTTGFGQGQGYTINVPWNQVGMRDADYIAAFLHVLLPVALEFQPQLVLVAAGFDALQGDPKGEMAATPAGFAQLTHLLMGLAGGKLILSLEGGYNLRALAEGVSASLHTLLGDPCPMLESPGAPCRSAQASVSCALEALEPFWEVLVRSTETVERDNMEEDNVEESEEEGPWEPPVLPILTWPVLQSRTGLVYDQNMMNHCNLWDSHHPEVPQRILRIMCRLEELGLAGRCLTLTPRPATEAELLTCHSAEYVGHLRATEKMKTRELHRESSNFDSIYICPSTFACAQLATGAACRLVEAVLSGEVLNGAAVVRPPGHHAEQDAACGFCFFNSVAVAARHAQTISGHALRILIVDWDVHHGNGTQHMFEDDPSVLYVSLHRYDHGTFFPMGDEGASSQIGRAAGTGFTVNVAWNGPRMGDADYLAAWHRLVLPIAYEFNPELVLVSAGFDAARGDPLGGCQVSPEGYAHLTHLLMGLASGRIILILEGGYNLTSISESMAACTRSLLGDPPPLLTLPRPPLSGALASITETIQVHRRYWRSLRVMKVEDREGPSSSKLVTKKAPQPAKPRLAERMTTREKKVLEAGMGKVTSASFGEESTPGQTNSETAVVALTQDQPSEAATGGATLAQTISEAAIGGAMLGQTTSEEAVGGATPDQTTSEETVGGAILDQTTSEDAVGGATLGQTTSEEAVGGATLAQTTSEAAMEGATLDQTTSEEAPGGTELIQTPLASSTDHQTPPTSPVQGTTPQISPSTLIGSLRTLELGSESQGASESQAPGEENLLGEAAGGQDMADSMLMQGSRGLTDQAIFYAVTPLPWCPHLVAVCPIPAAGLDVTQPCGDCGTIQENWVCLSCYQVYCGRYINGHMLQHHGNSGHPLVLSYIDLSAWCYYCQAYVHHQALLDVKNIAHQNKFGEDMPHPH

A549 = test: Antiproliferative activity against human A549 cells after 72 hrs by Cell Titer-Glo assay; assay type: functional, cell-based; conditions: A549, 72 h
HEK-293T = test: Antiproliferative activity against human 293T cells after 72 hrs by Cell Titer-Glo assay; assay type: functional, cell-based
[8] = Aqueous solubility of the compound; assay type: physicochemical; conditions: buffer
STAM-binding protein = target: T4, STAM-binding protein (Homo sapiens, UniProt O95630); test: Inhibition of AMSH (unknown origin) using DiUbK63TAMRA as substrate by fluorescence assay
T4 sequence (O95630 whole entry): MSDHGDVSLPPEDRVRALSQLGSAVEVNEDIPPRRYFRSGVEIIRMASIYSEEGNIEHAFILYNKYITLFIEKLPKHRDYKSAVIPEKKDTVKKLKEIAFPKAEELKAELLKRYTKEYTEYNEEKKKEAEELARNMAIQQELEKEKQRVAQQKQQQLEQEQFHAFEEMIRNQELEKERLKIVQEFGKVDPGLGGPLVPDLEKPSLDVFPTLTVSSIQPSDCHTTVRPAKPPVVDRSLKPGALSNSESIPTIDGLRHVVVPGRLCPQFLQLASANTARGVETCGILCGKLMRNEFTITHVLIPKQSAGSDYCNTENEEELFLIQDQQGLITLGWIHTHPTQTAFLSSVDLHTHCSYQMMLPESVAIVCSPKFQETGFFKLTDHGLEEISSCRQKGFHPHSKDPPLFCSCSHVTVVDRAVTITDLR

Chain of Histone deacetylase 1 (Q13547 whole entry): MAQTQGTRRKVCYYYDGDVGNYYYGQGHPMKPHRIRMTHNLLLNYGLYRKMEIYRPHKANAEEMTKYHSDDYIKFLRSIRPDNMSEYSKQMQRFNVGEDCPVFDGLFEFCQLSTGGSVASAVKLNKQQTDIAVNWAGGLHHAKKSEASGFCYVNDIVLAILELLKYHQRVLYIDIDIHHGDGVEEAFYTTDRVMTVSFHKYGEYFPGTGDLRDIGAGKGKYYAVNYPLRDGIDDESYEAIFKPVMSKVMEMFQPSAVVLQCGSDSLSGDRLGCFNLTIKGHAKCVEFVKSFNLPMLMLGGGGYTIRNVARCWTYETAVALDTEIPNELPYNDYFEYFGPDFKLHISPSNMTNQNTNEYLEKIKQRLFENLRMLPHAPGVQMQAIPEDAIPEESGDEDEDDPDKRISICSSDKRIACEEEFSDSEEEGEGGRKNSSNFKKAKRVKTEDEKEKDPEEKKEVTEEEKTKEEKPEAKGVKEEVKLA
Chain of COP9 signalosome complex subunit 5 (Q92905 whole entry, one chain of several): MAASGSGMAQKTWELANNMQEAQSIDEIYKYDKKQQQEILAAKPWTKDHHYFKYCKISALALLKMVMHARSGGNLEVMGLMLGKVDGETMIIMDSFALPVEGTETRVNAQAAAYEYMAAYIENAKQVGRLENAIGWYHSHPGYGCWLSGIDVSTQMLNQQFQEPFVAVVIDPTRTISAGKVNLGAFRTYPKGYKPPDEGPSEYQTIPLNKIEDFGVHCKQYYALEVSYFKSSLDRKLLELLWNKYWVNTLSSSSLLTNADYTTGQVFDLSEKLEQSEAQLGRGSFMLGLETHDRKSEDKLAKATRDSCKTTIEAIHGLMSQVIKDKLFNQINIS
Chain of 72 kDa type IV collagenase (P08253 whole entry, the tested form may be a part): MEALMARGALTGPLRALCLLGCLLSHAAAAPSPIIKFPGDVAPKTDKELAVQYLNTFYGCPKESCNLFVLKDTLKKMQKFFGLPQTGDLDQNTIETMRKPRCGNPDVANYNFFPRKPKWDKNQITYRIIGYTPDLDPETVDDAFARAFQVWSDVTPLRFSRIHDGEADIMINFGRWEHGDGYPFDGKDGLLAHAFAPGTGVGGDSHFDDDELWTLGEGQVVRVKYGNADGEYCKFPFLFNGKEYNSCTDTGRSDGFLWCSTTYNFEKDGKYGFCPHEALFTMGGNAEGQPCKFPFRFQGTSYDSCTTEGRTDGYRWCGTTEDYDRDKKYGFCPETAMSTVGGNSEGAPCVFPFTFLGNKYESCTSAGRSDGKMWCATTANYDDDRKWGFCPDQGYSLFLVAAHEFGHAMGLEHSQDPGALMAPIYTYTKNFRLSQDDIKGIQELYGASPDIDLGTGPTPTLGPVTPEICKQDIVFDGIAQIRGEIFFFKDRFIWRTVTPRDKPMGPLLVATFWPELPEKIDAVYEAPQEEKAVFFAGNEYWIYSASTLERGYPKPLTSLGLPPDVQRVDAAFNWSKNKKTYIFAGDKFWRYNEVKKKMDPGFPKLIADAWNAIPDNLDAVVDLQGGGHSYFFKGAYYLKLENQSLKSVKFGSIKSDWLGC
T1 sequence (O00487 whole entry): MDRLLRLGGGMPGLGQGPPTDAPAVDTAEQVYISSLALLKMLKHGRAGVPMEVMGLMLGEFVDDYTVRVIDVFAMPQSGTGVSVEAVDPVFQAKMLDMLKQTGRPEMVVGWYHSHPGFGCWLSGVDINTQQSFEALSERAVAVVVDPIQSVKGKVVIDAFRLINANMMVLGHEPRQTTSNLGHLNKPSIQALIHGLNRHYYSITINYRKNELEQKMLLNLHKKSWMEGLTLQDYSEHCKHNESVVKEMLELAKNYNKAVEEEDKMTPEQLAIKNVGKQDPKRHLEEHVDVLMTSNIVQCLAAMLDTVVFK
Chain of Lys-63-specific deubiquitinase BRCC36 (Homo sapiens) (P46736 whole entry): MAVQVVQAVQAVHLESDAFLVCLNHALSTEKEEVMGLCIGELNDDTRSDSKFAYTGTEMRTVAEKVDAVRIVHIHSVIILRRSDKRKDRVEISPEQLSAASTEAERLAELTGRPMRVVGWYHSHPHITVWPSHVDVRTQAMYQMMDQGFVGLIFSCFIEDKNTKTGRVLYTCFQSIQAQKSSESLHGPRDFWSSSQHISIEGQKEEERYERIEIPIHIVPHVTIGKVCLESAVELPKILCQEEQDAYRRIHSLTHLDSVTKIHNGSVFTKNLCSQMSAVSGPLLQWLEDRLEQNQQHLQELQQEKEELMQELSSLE

SMILES	IC50 (Carbonic anhydrase 2)	IC50 (Histone deacetylase 1)	IC50 [1]	IC50 [2]	IC50 [3]	inhibition [4]	inhibition [5]	IC50 [6]	IC50 (HCT-116)	IC50 [7]	IC50 (A549)	solubility [8]	IC50 (STAM-binding protein)	IC50 (HEK-293T)
Cc1cnc2c(S)cccc2c1	> 40 µM	> 50 µM	1600 nM	7.1 µM	> 200 µM			> 200 µM	2600 nM	> 200 µM				
Cc1cc(S)c2ncccc2c1	> 100 µM	> 50 µM	900 nM		> 200 µM			> 200 µM		> 50 µM				
Cc1ccc(S)c2ncccc12	> 200 µM	> 200 µM	2500 nM	2.9 µM	> 200 µM			> 200 µM	3400 nM	> 200 µM				

More lines, main results first:

IC50 (Carbonic anhydrase 2)	IC50 (Histone deacetylase 1)	IC50 [1]	IC50 [2]	IC50 [3]	inhibition [4]	inhibition [5]	IC50 [6]	IC50 (HCT-116)	IC50 [7]	IC50 (A549)	solubility [8]	IC50 (STAM-binding protein)	SMILES	IC50 (HEK-293T)
> 200 µM	> 200 µM	2500 to 2800 nM	10.3 µM	> 200 µM	Active	100%	> 200 µM	1600 nM	> 200 µM				Sc1cccc2cccnc12	
> 200 µM	> 200 µM	5700 nM	25.1 µM	> 200 µM			> 200 µM	> 10000 nM	> 200 µM				Cc1ccnc2c(S)cccc12	
										0.092 µM			CC(C)C[C@H](NC(=O)[C@H](Cc1ccccc1)NC(=O)c1cnccn1)B(O)O [BORTEZOMIB]	12 nM
			20 µM							5.8 µM	Soluble	4.7 µM	O=C(Nc1nccs1)c1cnc2c(SSc3cccc4cc(C(=O)Nc5nccs5)cnc34)cccc2c1	6400 nM
										3.8 µM	Soluble		O=C(NCCc1nccs1)c1cnc2c(SSc3cccc4cc(C(=O)NCCc5nccs5)cnc34)cccc2c1	2100 nM
